Laboratory results published in ChEMBL document CHEMBL4196200 (J Med Chem, 2018).
Values after ≈ are worked out from the molar mass of the structure shown. Each block holds one molecule with its values, some of them ahead of it. Numbered stars: 1 amine (or outer) side, 2 acyl side, 3 side chain; on linkers, the order of the positions; unused ones are H or OH. Bridge positions count the residues as written; N and C are the ends. Peptide text beside a SMILES is read from it. X1 = O=C(CCC[*:2])[*:1]

Experiments:
[1] = molecular target: T1, Oxytocin receptor (Homo sapiens) (UniProt P30559); experiment: Agonist activity at human OTR receptor expressed in HEK293FT cells assessed as stimulation of calcium release by Aequorin based assay relative to OT; format: functional, cell-based
T1 sequence (whole entry): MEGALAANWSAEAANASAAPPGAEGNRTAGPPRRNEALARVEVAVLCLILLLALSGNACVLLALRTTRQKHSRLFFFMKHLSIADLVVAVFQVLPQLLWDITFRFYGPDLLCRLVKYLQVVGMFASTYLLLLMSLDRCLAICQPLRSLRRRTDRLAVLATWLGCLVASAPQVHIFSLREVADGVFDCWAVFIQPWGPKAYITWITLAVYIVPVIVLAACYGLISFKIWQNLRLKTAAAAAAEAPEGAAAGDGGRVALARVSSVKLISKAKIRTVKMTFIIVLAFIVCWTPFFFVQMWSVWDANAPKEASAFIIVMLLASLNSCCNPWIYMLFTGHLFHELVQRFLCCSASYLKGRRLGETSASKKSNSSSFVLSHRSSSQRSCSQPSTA

[2] = molecular target: T1, Oxytocin receptor (Homo sapiens); experiment: Agonist activity at human OTR receptor expressed in HEK293FT cells incubated for 30 mins by beta-arrestin recruitment assay relative to OT; format: functional, cell-based
[3] = molecular target: T2, Oxytocin receptor (Mus musculus) (UniProt P97926); experiment: Agonist activity at mouse OTR receptor expressed in HEK293FT cells assessed as stimulation of calcium release by Aequorin based assay relative to OT; format: functional, cell-based
T2 sequence (whole entry): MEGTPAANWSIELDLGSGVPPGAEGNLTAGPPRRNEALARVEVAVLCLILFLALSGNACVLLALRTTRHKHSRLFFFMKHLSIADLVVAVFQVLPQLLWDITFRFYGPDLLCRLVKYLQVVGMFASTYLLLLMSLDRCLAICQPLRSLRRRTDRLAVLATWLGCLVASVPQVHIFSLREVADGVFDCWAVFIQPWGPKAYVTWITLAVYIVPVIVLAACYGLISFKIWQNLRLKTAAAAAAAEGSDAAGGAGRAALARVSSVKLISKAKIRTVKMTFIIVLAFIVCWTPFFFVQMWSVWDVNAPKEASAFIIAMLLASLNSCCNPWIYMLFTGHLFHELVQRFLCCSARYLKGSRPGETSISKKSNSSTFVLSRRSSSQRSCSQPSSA

[4] = molecular target: T3, Vasopressin V1a receptor (Homo sapiens, UniProt P37288)
Description: Agonist activity at human V1a receptor expressed in HEK293FT cells incubated for 30 mins by beta-arrestin recruitment assay

[5] = molecular target: T3, Vasopressin V1a receptor; remark: listed apart in the source
Description: Agonist activity at human V1a receptor expressed in HEK293FT cells assessed as stimulation of calcium release by Aequorin based assay

[6] = molecular target: T4, Oxytocin receptor (Mus musculus, UniProt P97926); experiment: Agonist activity at mouse OTR receptor expressed in HEK293FT cells assessed as stimulation of calcium release by Aequorin based assay; format: functional, cell-based
T4 sequence (P97926 whole entry): T2 sequence (whole entry)

[7] = molecular target: T5, Vasopressin V1b receptor (Homo sapiens, UniProt P47901)
T5 sequence (P47901 whole entry): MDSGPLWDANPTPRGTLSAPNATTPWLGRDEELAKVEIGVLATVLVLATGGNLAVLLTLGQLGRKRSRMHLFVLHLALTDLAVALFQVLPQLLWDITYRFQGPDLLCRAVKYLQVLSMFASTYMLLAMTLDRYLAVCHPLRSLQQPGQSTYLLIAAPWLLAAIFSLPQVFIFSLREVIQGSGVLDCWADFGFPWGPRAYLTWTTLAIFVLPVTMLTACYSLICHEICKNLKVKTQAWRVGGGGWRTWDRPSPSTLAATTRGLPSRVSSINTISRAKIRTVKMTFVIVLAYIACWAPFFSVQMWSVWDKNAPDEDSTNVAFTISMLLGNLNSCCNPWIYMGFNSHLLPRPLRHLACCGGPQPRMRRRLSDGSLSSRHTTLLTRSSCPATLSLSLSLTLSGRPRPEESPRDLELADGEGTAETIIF
Description: Agonist activity at human V1b receptor expressed in HEK293FT cells incubated for 30 mins by beta-arrestin recruitment assay

[8] = molecular target: T6, Vasopressin V2 receptor (Homo sapiens, UniProt P30518); experiment: Displacement of DY647 from SNAP-tagged V2 receptor (unknown origin) expressed in HEK293 cells by TR-FRET assay; format: cell-based
[9] = molecular target: T6, Vasopressin V2 receptor; experiment: Agonist activity at human V2 receptor expressed in HEK293FT cells assessed as stimulation of calcium release by Aequorin based assay; format: functional, cell-based
[10] = Thermodynamic solubility in pH 7.4 buffer; format: physicochemical; details: read-out: Therm_solubility
[11] = molecular target: T1, Oxytocin receptor (Homo sapiens); experiment: Agonist activity at human OTR expressed in HEK cells assessed as increase in intracellular calcium flux incubated for 45 mins by Indo1-AM dye based fluorescence assay relative to OT; format: functional, cell-based
[12] = molecular target: T6, Vasopressin V2 receptor; experiment: Binding affinity to V2 receptor (unknown origin)
[13] = molecular target: T1, Oxytocin receptor (Homo sapiens); experiment: Antagonist activity at human OTR expressed in HEK cells assessed as inhibition of OT-induced intracellular calcium flux at 1 uM incubated for 45 mins by Indo1-AM dye based fluorescence assay relative to OT; format: functional, cell-based
[14] = molecular target: T1, Oxytocin receptor (Homo sapiens); experiment: Agonist activity at recombinant human OTR expressed in CHO-DUKX-A2 cells assessed as stimulation of intracellular calcium concentration by calcium 3 dye based FLIPR assay relative to OT; format: functional, cell-based
[15] = molecular target: T5, Vasopressin V1b receptor; experiment: Binding affinity to V1B receptor (unknown origin)
[16] = molecular target: T7, Oxytocin receptor (Homo sapiens, UniProt P30559); experiment: Antagonist activity at human OTR receptor expressed in HEK293FT cells assessed as inhibition of LIT-001-induced response incubated for 30 mins by beta-arrestin recruitment assay; format: functional, cell-based
T7 sequence (P30559 whole entry): T1 sequence (whole entry)

[17] = molecular target: T6, Vasopressin V2 receptor; experiment: Antagonist activity at human V2 receptor expressed in HEK293FT cells assessed as inhibition of AVP-induced calcium release by Aequorin based assay; format: functional, cell-based
[18] = molecular target: T6, Vasopressin V2 receptor; experiment: Antagonist activity at human V2 receptor expressed in HEK293FT cells assessed as inhibition of […] response incubated for 30 mins by beta-arrestin recruitment assay; format: functional, cell-based
[19] = molecular target: T7, Oxytocin receptor; experiment: Antagonist activity at human OTR receptor expressed in HEK293FT cells assessed as inhibition of LIT-001-induced calcium release by Aequorin based assay; format: functional, cell-based
[20] = molecular target: T8, Vasopressin V1b receptor (Rattus norvegicus, UniProt P48974); experiment: Displacement of [3H]AVP from V1B receptor in Wistar rat pituitary membranes incubated for 60 mins by microplate scintillation counting method; format: cell membranes
T8 sequence (P48974 whole entry): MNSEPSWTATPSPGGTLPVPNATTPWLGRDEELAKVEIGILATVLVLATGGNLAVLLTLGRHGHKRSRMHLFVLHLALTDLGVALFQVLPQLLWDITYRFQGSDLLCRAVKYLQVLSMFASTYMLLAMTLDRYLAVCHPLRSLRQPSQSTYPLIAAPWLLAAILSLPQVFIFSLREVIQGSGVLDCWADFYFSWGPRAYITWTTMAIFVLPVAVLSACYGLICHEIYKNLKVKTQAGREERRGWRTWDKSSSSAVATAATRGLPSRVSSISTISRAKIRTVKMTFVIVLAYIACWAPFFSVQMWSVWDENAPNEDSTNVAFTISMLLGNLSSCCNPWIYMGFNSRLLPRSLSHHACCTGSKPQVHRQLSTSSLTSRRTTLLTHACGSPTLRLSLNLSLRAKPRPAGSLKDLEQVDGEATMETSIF

T6 sequence (P30518 whole entry): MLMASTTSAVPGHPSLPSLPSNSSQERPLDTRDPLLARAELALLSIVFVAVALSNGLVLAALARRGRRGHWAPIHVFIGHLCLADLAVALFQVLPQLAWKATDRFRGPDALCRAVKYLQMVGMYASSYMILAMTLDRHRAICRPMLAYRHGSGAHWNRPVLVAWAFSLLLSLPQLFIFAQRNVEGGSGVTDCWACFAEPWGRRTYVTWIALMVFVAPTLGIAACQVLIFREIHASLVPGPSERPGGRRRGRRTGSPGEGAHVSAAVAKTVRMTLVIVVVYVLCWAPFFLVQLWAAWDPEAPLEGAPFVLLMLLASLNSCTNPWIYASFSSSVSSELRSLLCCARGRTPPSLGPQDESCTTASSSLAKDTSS
T3 sequence (P37288 whole entry): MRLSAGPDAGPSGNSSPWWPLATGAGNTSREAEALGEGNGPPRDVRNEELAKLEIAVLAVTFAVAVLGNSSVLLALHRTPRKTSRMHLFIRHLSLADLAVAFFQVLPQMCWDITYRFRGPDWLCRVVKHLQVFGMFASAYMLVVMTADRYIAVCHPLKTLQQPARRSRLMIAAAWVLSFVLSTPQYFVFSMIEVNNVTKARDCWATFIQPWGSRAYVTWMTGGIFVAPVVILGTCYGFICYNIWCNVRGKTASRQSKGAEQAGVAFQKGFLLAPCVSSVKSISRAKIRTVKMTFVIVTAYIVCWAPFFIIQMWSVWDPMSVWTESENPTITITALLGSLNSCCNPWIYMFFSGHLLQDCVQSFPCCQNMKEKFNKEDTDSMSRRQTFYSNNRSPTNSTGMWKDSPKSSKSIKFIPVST

Emax [1]: 100% | Emax [2]: 100% | Emax [3]: 100% | IC50 [4]: Not Active
Compound: CC[C@H](C)[C@@H]1NC(=O)[C@H](Cc2ccc(O)cc2)NC(=O)[C@@H](N)CSSC[C@@H](C(=O)N2CCC[C@H]2C(=O)N[C@@H](CC(C)C)C(=O)NCC(N)=O)NC(=O)[C@H](CC(N)=O)NC(=O)[C@H](CCC(N)=O)NC1=O [OXYTOCIN]

EC50 [5]: Not Active | EC50 [6]: 62 nM | EC50 [7]: Not Active | Emax [3]: 85% | IC50 [4]: Not Active
Compound: CC[C@H](C)[C@@H]1NC(=O)[C@H](Cc2ccc(OC)cc2)NC(=O)CCCSC[C@@H](C(=O)N2CCC[C@H]2C(=O)N[C@@H](CC(C)C)C(=O)NCC(N)=O)NC(=O)[C@H](CC(N)=O)NC(=O)[C@H](CCC(N)=O)NC1=O [CARBETOCIN] (Y(Me)IQNCPLG-NH2; linker N-5 via X1)

Ki [8]: > 1000 nM | EC50 [9]: 2300 nM | solubility thermodynamic [10]: 5 mM (≈ 2910 µg/mL) | EC50 [6]: 78 nM | Emax [11]: 40% | Emax [1]: 70% | Emax [2]: 84% | Emax [3]: 86% | Ki [12]: 58.4 to 1000 nM | inhibition [13]: 5 to 10% | Emax [14]: 87.1% | Ki [15]: 1000 to 5800 nM
Compound: Cc1cc(C(=O)N2Cc3cnn(C)c3Nc3ccccc32)ccc1CNC(=O)N1CCN(Cc2cc(O)cc(O)c2)CC1

IC50 [16]: 63 nM | IC50 [17]: 1530 nM | IC50 [18]: 2620 nM | IC50 [19]: 600 nM
Compound: COCc1nnc(N2CC(Oc3ccc(F)cc3Cl)C2)n1-c1ccc(OC)nc1

Ki [20]: > 10000 nM
Compound: Cc1nc2c([nH]1)-c1ccccc1N(C(=O)c1ccc(NC(=O)c3ccccc3-c3ccccc3)cc1)CC2 [CONIVAPTAN]
